Assays:
Assay in all cases: relative viability (nuclei count vs DMSO), 5 days (fraction); higher = more cells survive
ABC-1 = system: ABC-1
Method in brief: (§1)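 Cells from lung cancer lines were seeded into 1536-well plates and, one day later, dosed by pin tool. Treatments were either a single drug or a fixed dose of an anchor drug with five library-drug doses (not always all listed) in √10 steps. After 5 days, nuclei were stained in a one-step fixation (final 0.05% Triton X-100, 1% formaldehyde, 1 ug/ml Hoechst) and counted on 4× images, and relative viability is the treated-to-vehicle nuclei ratio, as the median of duplicate plates.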

CAL-12T = system: CAL-12T
Method in brief: as §1

COR-L 105 = system: COR-L 105
Method in brief: as §1

EMC-BAC-2 = system: EMC-BAC-2
Method in brief: as §1

EPLC-272H = system: EPLC-272H
Method in brief: as §1

HCC-15 = system: HCC-15
Method in brief: as §1

HCC-78 = system: HCC-78
Method in brief: as §1

HOP-62 = system: HOP-62
Method in brief: as §1

LXF-289 = system: LXF-289
Method in brief: as §1

NCI-H1666 = system: NCI-H1666
Method in brief: as §1

NCI-H1755 = system: NCI-H1755
Method in brief: as §1

NCI-H1915 = system: NCI-H1915
Method in brief: as §1

NCI-H1975 = system: NCI-H1975
Method in brief: as §1

NCI-H1993 = system: NCI-H1993
Method in brief: as §1

NCI-H2023 = system: NCI-H2023
Method in brief: as §1

NCI-H2085 = system: NCI-H2085
Method in brief: as §1

NCI-H2126 = system: NCI-H2126
Method in brief: as §1

NCI-H3122 = system: NCI-H3122
Method in brief: as §1

NCI-H322M = system: NCI-H322M
Method in brief: as §1

NCI-H358 = system: NCI-H358
Method in brief: as §1

NCI-H441 = system: NCI-H441
Method in brief: as §1

UMC-11 = system: UMC-11
Method in brief: as §1

## C[C@@H]1CN(CC(=O)Nc2ccc3c(c2)Cc2cccc(-c4cc(=O)cc(N5CCOCC5)o4)c2S3)C[C@H](C)O1 + C[C@]1(O)C[C@@H](c2nc(-c3ccc4ccc(-c5ccccc5)nc4c3)c3c(N)nccn32)C1 [Linsitinib] (partner 1 µM)
ABC-1; first compound 0.1265 µM
  relative viability: 0.781
ABC-1; first compound 0.4 µM
  relative viability: 0.769
ABC-1; first compound 4 µM
  relative viability: 0.673
CAL-12T; first compound 0.04 µM
  relative viability: 0.893
CAL-12T; first compound 0.1265 µM
  relative viability: 0.78
CAL-12T; first compound 0.4 µM
  relative viability: 0.648
CAL-12T; first compound 4 µM
  relative viability: 0.54
COR-L 105; first compound 0.04 µM
  relative viability: 1.01
COR-L 105; first compound 0.1265 µM
  relative viability: 1.1
COR-L 105; first compound 0.4 µM
  relative viability: 0.746
COR-L 105; first compound 4 µM
  relative viability: 0.996
EMC-BAC-2; first compound 0.04 µM
  relative viability: 0.805
EMC-BAC-2; first compound 0.1265 µM
  relative viability: 0.765
EMC-BAC-2; first compound 0.4 µM
  relative viability: 0.757
EMC-BAC-2; first compound 4 µM
  relative viability: 0.77
EPLC-272H; first compound 0.04 µM
  relative viability: 1.24
EPLC-272H; first compound 0.1265 µM
  relative viability: 1.12
EPLC-272H; first compound 0.4 µM
  relative viability: 1.17
EPLC-272H; first compound 4 µM
  relative viability: 1.36
HCC-15; first compound 0.04 µM
  relative viability: 0.85
HCC-15; first compound 0.1265 µM
  relative viability: 0.809
HCC-15; first compound 0.4 µM
  relative viability: 0.878
HCC-15; first compound 4 µM
  relative viability: 0.674
HCC-78; first compound 0.04 µM
  relative viability: 0.485
HCC-78; first compound 0.1265 µM
  relative viability: 0.461
HCC-78; first compound 0.4 µM
  relative viability: 0.344
HCC-78; first compound 4 µM
  relative viability: 0.461
HOP-62; first compound 0.04 µM
  relative viability: 0.93
HOP-62; first compound 0.1265 µM
  relative viability: 0.945
HOP-62; first compound 0.4 µM
  relative viability: 0.897
HOP-62; first compound 4 µM
  relative viability: 0.947
LXF-289; first compound 0.04 µM
  relative viability: 0.981
LXF-289; first compound 0.1265 µM
  relative viability: 0.983
LXF-289; first compound 0.4 µM
  relative viability: 1.02
LXF-289; first compound 4 µM
  relative viability: 0.933
NCI-H1666; first compound 0.04 µM
  relative viability: 1.08
NCI-H1666; first compound 0.1265 µM
  relative viability: 0.908
NCI-H1666; first compound 0.4 µM
  relative viability: 0.839
NCI-H1666; first compound 4 µM
  relative viability: 0.565
NCI-H1755; first compound 0.04 µM
  relative viability: 1.01
NCI-H1755; first compound 0.1265 µM
  relative viability: 0.913
NCI-H1755; first compound 0.4 µM
  relative viability: 0.955
NCI-H1755; first compound 4 µM
  relative viability: 0.941
NCI-H1915; first compound 0.04 µM
  relative viability: 1.05
NCI-H1915; first compound 0.1265 µM
  relative viability: 1.07
NCI-H1915; first compound 0.4 µM
  relative viability: 1.13
NCI-H1915; first compound 4 µM
  relative viability: 1.12
NCI-H1975; first compound 0.04 µM
  relative viability: 0.895
NCI-H1975; first compound 0.1265 µM
  relative viability: 0.866
NCI-H1975; first compound 0.4 µM
  relative viability: 0.81
NCI-H1975; first compound 4 µM
  relative viability: 0.8
NCI-H1993; first compound 0.04 µM
  relative viability: 0.716
NCI-H1993; first compound 0.1265 µM
  relative viability: 0.733
NCI-H1993; first compound 0.4 µM
  relative viability: 0.848
NCI-H1993; first compound 4 µM
  relative viability: 0.805
NCI-H2023; first compound 0.04 µM
  relative viability: 0.751
NCI-H2023; first compound 0.1265 µM
  relative viability: 0.669
NCI-H2023; first compound 0.4 µM
  relative viability: 0.433
NCI-H2023; first compound 4 µM
  relative viability: 0.496
NCI-H2085; first compound 0.04 µM
  relative viability: 0.992
NCI-H2085; first compound 0.1265 µM
  relative viability: 0.803
NCI-H2085; first compound 0.4 µM
  relative viability: 0.827
NCI-H2085; first compound 4 µM
  relative viability: 0.724
NCI-H2126; first compound 0.04 µM
  relative viability: 0.765
NCI-H2126; first compound 0.1265 µM
  relative viability: 0.762
NCI-H2126; first compound 0.4 µM
  relative viability: 0.707
NCI-H2126; first compound 4 µM
  relative viability: 0.722
NCI-H3122; first compound 0.04 µM
  relative viability: 1.07
NCI-H3122; first compound 0.1265 µM
  relative viability: 0.933
NCI-H3122; first compound 0.4 µM
  relative viability: 1.02
NCI-H3122; first compound 4 µM
  relative viability: 0.99
NCI-H322M; first compound 0.04 µM
  relative viability: 1.01
NCI-H322M; first compound 0.1265 µM
  relative viability: 0.847
NCI-H322M; first compound 0.4 µM
  relative viability: 0.857
NCI-H322M; first compound 4 µM
  relative viability: 0.79
NCI-H358; first compound 0.04 µM
  relative viability: 0.854
NCI-H358; first compound 0.1265 µM
  relative viability: 0.733
NCI-H358; first compound 0.4 µM
  relative viability: 0.703
NCI-H358; first compound 4 µM
  relative viability: 0.487
NCI-H441; first compound 0.04 µM
  relative viability: 0.404
NCI-H441; first compound 0.1265 µM
  relative viability: 0.573
NCI-H441; first compound 0.4 µM
  relative viability: 0.536
NCI-H441; first compound 4 µM
  relative viability: 0.433
UMC-11; first compound 0.04 µM
  relative viability: 0.997
UMC-11; first compound 0.1265 µM
  relative viability: 0.993
UMC-11; first compound 0.4 µM
  relative viability: 1.05
UMC-11; first compound 4 µM
  relative viability: 0.857

## CC(C)Oc1cc(Nc2nc(N[C@@H](C)c3ccc(F)cn3)ncc2Cl)n[nH]1 [AZ23] + CS(=O)(=O)CCNCc1ccc(-c2ccc3ncnc(Nc4ccc(OCc5cccc(F)c5)c(Cl)c4)c3c2)o1 [Lapatinib] (partner 2 µM)
ABC-1; first compound 0.01 µM
  relative viability: 1.15
ABC-1; first compound 0.03162 µM
  relative viability: 1.24
ABC-1; first compound 0.3162 µM
  relative viability: 1.17
CAL-12T; first compound 0.03162 µM
  relative viability: 0.701
CAL-12T; first compound 0.3162 µM
  relative viability: 0.647
COR-L 105; first compound 0.01 µM
  relative viability: 0.35
COR-L 105; first compound 0.03162 µM
  relative viability: 0.382
COR-L 105; first compound 0.3162 µM
  relative viability: 0.373
EMC-BAC-2; first compound 0.01 µM
  relative viability: 0.968
EMC-BAC-2; first compound 0.03162 µM
  relative viability: 0.981
EMC-BAC-2; first compound 0.3162 µM
  relative viability: 0.922
EPLC-272H; first compound 0.01 µM
  relative viability: 0.885
EPLC-272H; first compound 0.03162 µM
  relative viability: 1.16
HCC-15; first compound 0.01 µM
  relative viability: 1.08
HCC-15; first compound 0.03162 µM
  relative viability: 0.839
HCC-15; first compound 0.3162 µM
  relative viability: 0.784
HCC-78; first compound 0.01 µM
  relative viability: 0.469
HCC-78; first compound 0.03162 µM
  relative viability: 1
HCC-78; first compound 0.3162 µM
  relative viability: 0.456
HOP-62; first compound 0.01 µM
  relative viability: 1.14
HOP-62; first compound 0.03162 µM
  relative viability: 0.985
HOP-62; first compound 0.3162 µM
  relative viability: 0.966
LXF-289; first compound 0.01 µM
  relative viability: 1.01
LXF-289; first compound 0.03162 µM
  relative viability: 0.932
LXF-289; first compound 0.3162 µM
  relative viability: 0.884
NCI-H1666; first compound 0.01 µM
  relative viability: 0.747
NCI-H1666; first compound 0.03162 µM
  relative viability: 0.565
NCI-H1666; first compound 0.3162 µM
  relative viability: 0.591
NCI-H1755; first compound 0.01 µM
  relative viability: 1.28
NCI-H1755; first compound 0.03162 µM
  relative viability: 1.16
NCI-H1755; first compound 0.3162 µM
  relative viability: 1.05
NCI-H1915; first compound 0.01 µM
  relative viability: 1.12
NCI-H1915; first compound 0.03162 µM
  relative viability: 0.972
NCI-H1915; first compound 0.3162 µM
  relative viability: 1.01
NCI-H1975; first compound 0.01 µM
  relative viability: 1.27
NCI-H1975; first compound 0.03162 µM
  relative viability: 0.961
NCI-H1975; first compound 0.3162 µM
  relative viability: 0.862
NCI-H1993; first compound 0.01 µM
  relative viability: 0.808
NCI-H1993; first compound 0.3162 µM
  relative viability: 0.946
NCI-H2023; first compound 0.03162 µM
  relative viability: 0.945
NCI-H2023; first compound 0.3162 µM
  relative viability: 0.929
NCI-H2085; first compound 0.01 µM
  relative viability: 0.771
NCI-H2085; first compound 0.03162 µM
  relative viability: 0.735
NCI-H2085; first compound 0.3162 µM
  relative viability: 0.772
NCI-H2126; first compound 0.01 µM
  relative viability: 0.838
NCI-H2126; first compound 0.03162 µM
  relative viability: 0.821
NCI-H2126; first compound 0.3162 µM
  relative viability: 0.842
NCI-H3122; first compound 0.01 µM
  relative viability: 1.08
NCI-H3122; first compound 0.03162 µM
  relative viability: 1.01
NCI-H3122; first compound 0.3162 µM
  relative viability: 1.04
NCI-H322M; first compound 0.01 µM
  relative viability: 0.575
NCI-H322M; first compound 0.03162 µM
  relative viability: 0.621
NCI-H322M; first compound 0.3162 µM
  relative viability: 0.614
NCI-H358; first compound 0.01 µM
  relative viability: 0.505
NCI-H358; first compound 0.03162 µM
  relative viability: 0.433
NCI-H358; first compound 0.3162 µM
  relative viability: 0.392
UMC-11; first compound 0.01 µM
  relative viability: 0.946
UMC-11; first compound 0.03162 µM
  relative viability: 0.994
UMC-11; first compound 0.3162 µM
  relative viability: 1.02
